# Where two headings read alike, the source gives them in different places.
# T1: CYP1A2 (Homo sapiens, UniProt P05177)
# T1 sequence (P05177 1-516): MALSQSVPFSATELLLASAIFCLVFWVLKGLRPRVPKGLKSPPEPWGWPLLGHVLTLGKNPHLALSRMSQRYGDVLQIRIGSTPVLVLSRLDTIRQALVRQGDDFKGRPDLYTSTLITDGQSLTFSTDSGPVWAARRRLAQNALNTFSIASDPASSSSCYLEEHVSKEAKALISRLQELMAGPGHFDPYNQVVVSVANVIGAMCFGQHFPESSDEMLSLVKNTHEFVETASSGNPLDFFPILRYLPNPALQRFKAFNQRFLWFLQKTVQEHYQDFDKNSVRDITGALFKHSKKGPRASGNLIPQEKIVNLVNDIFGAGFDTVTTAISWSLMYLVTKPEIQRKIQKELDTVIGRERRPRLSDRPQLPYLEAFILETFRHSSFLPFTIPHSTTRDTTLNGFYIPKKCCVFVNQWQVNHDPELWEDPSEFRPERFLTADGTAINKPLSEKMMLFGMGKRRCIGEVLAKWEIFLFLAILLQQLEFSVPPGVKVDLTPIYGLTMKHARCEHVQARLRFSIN
# B1: CYP1A2 (Homo sapiens) (protein)
# chain: T1 sequence (P05177 1-516)
# notes: purchased Gentest Corp. (Woburn, Mass.)
# Columns and labels:
# [1] = biological target: T2, CYP3A4 (Homo sapiens, UniProt P08684); assay: DCF formation during CYP3A4-mediated metabolism of substrates (CYP3A4OR, DCFH-DA, NADPH)
# Method: A fluorogenic probe 2′, 7′-dichlorodihydrofluorescin-diacetate (DCFH-DA) was added to a CYP-mediated reaction mixture containing a substrate, isoenzyme, and NADPH in Tris buffer (50 mM, pH 7.4). The substrate comprised testosterone. Metabolism of the substrate was examined by measurement of formation of the resulting metabolite (prior art method) and/or 2′, 7′-dichlorofluroescein (DCF; method in accordance with the present invention) which was converted from the DCFH-DA in the presence of the ROS produced by CYP-mediated reactions. Dextromethorphan and benzyloxyresorufin served as two additional substrates, and phenacetine (not a CYP3A4 substrate) as a negative control for CYP3A4 to test whether the method of the present invention could differentiate substrates with different metabolic rates or substrates from non-substrates.
# Initial studies were conducted to examine whether DCF was formed during CYP-mediated oxidation using testosterone hydroxylation by CYP3A4OR. A reaction mixture (total 2 ml) comprising DCFH-DA (5.36 μM), CYP3A4OR (0.5 mg/ml) and testosterone (50 μM) in Tris buffer (50 mM, pH 7.4) was prepared. The reaction was initiated by adding NADPH (0.5 mM) and allowed to proceed at room temperature. The fluorescent spectra (emission and excitation) of DCF formed from the incubation was determined using LS50B Luminescence Spectrometer (Perkin-Elmer, Norwalk, Conn.). The spectra were compared with that of standard DCF in Tris buffer (50 mM, pH 7.4). An incubation mixture that contained all the components as described previously except for DCFH-DA served as a control.
# (§1) Metabolism—After obtaining the maximal excitation and emission wavelengths of DCF under experimental conditions, the fluorescent signals at the maximal excitation and emission wavelengths were determined for incubation reactions that contained 12.5, 25, and 50 μM testosterone to test whether DCF formation was dependent on testosterone concentrations. The incubation conditions were the same as those described above. The formation of DCF at 10 min post addition of NADPH was calculated based on the standard curve of DCF. The standard curve covered DCF concentrations ranging from 0.05 to 50 nM. In parallel, DCF formation was determined with incubation reactions that were devoid of any of NADPH, CYP3A4 or testosterone.
# DCFH-DA (1, 2.5 or 5 μM) was incubated with CYP3A4OR (0.5 mg/ml protein), testosterone (33 μM), and NADPH (1 mM) in Tris buffer. DCF concentration was measured at 5, 10, 20 and 30 min. The effect of NADPH concentration on DCF formation at 20 and 30 min was examined with incubations containing NADPH (0.5, 1 or 2 mM), testosterone (33 μM), and DCFH-DA (2.5 μM).
# (§2) DCFH-DA (2.5 ,μM) was incubated with testosterone (5-40 4 μM), CYP3A4OR (0.5 mg/ml protein) and NADPH (1 mM) in Tris buffer. The total incubation volume was 1 ml. The formation of DCF was measured at 10 and 20 min post addition of NADPH. Triplicate incubations were performed at each concentration. A Michaelis-Menten function was used to fit to DCF formation rate vs. testosterone concentration data to obtain estimates of the relevant kinetic parameters using the nonlinear least-squares regression method (Winnonlin Scientific Consulting Co., Apex, N.C.). Parallel experiments were conducted to obtain the kinetic parameters based on measurement of 6β-OH testosterone, a specific CYP3A4-mediated metabolite of testosterone, with the HPLC-UV method. The concentration range of testosterone used for the HPLC-UV method was 10 to 75 μM.
# Dextromethorphan (2-100 μM), benzyloxyresorufin (5-100 μM), or phenacetin (48 μM) was incubated with CYP3A4OR (0.5 or 1 mg/ml), DCFH-DA (2.5 μM) and NADPH (1 mM) in Tris buffer. In the case of benzyloxyresorufin, pluronic F-68 (2%, 5 μl) was added to the reaction mixture (Crespi et al., Ana. Biochem. 248:188-190). DCF formation was measured at timed intervals.
# [2] = biological target: T2, CYP3A4; settings: Crespi et al., Anal. Biochem. 248:188-190 (1997); cited from earlier work
# [3] = biological target: T1, CYP1A2; settings: 5 min
# Method: The effect of furafylline, a specific inhibitor of CYP1A2, on CYP1A2-mediated ethoxyresorufin metabolism was also examined. Furafylline (1 and 10 ,μM) was pre-incubated with CYP1A2 SUPERSOME™ (180 μg/ml protein) and NADPH (4 mM) in Tris buffer in a total volume of 0.5 ml for 10 min. Then ethoxyresorufin (5 μM), DCFH-DA (5 μM), and supplemental NADPH was added to the mixture. The reaction proceeded for 5 min.
# [4] = biological target: T2, CYP3A4; assay: 6β-OH testosterone formation during CYP3A4-mediated testosterone metabolism, HPLC-UV method; settings: recombinant CYP3A4OR
# Method: as §1
# as §2, with “Parallel experiments were conducted to obtain the kinetic parameters based on measurement of 6β-OH testosterone, a specific CYP3A4-mediated metabolite of testosterone, with the HPLC-UV method. The concentration range of testosterone used for the HPLC-UV method was 10 to 75 μM.” left out
# [5] = biological target: T2, CYP3A4; assay: HPLC monitoring of potential phenacetin metabolites after incubation with CYP3A4OR; type: in vitro ADME; parameters: Glaxo Wellcome Inc. (gift); settings: phenacetin 92 μM; CYP3A4OR 0.5 or 1 mg/ml; NADPH 1 mM; 10 or 30 min
# Method: Briefly, acetonitrile (0.4 ml) was added to a reaction mixture (0.5 ml) of phenacetin as described previously. The resultant solution was mixed and centrifuged (15,000×3 min). An aliquot (100 μl) of the supernatant was injected to an Advantage 100 5 micron C18 column (4.6×250 mm, Thomas Liquid Chromatography). The mobile phase comprised CH3CN and H2O with a gradient from 1 to 99% CH3CN over 20 min at a flow rate of 1 ml/min. Phenacetin and its potential metabolites were monitored at 244 nm.
# Potential metabolites of phenacetin were monitored by HPLC. […] Phenacetin (92 μM) was incubated with CYP3A4oR (0.5 or 1 mg/ml) and NADPH (1 mM) for 10 or 30 min. Incubation in the absence of NADPH was used as control.
# [6] = substrate: CCOc1ccc2nc3ccc(=O)cc-3oc2c1; assay: DCF formation during CYP1A2-mediated metabolism of ethoxyresorufin (CYP1A2 SUPERSOME); type: in vitro ADME, human; settings: other: CYP1A2 SUPERSOME 90 μg/ml; DCFH-DA 5 μM; 15 min
# Method: (§3) Initial experiments were conducted to examine ethoxyresorufin concentration-dependent formation of DCF. Ethoxyresorufin (0.5, 5, 50 μM) was incubated with CYP1A2 SUPERSOME™ (sold under this trademark by Gentest Corp., Woburn, Mass.) (90 μg/ml protein), DCFH-DA (5 μM) and NADPH (1 mM). Formation of resorufin and DCF for the sample was measured at 8 and 10 min, respectively. The kinetic parameters then were obtained by incubating ethoxyresorufin (0.5-2.5 μM) with CYP1A2 SUPERSOME™ (90 μg/ml protein), DCFH-DA (5 μM), and NADPH (1 mM) for 5 min for measurement of resorufin formation and 15 min for measurement of DCF formation. Formation of DCF and resorufin was determined by fluorescence spectrophotometry. All experiments were performed in triplicate unless otherwise indicated.
# [7] = substrate: CCOc1ccc2nc3ccc(=O)cc-3oc2c1; assay: Resorufin formation during CYP1A2-mediated metabolism of ethoxyresorufin (fluorescence spectrophotometry); type: in vitro ADME, human; settings: other: CYP1A2 SUPERSOME 90 μg/ml; 5 min
# Method: Resorufin, a common metabolite of ethoxyresorufin by CYP1A2 and of benzyloxyresorufin by CYP3A4, was measured by fluorescence spectrophotometry as described above for DCF, with excitation and emission wavelength at 570 and 583 nm, respectively.
# as §3
# [8] = read-out: Apparent Km by measurement of DCF formation, CYP3A4OR, DCFH-DA 2.5 μM, NADPH 1 mM, Michaelis-Menten fit
# T2 sequence (P08684 whole entry): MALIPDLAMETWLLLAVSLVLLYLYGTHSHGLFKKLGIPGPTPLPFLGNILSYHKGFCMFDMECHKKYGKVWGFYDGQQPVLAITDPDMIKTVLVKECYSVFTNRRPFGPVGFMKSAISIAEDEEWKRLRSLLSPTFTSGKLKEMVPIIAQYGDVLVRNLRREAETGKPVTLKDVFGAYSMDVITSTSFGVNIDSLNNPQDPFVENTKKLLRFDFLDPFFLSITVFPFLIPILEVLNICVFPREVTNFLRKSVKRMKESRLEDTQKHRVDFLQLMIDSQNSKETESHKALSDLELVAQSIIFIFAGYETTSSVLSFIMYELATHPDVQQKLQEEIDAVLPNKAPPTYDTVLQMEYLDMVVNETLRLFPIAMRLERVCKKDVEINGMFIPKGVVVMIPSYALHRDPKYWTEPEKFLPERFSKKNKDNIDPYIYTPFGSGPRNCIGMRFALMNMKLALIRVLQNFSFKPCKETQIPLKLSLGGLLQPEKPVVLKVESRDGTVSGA
molecule,measurement,setting,value
"O=c1ccc2nc3ccc(OCc4ccccc4)cc3oc-2c1 [Benzyloxyresorufin, 7-benzyloxyresorufin]",Apparent Vmax by measurement of DCF formation,"[1]; CYP3A4OR, DCFH-DA 2.5 μM, NADPH 1 mM, Michaelis-Menten fit",1.17 ± 0.14 pmol DCF/min/mg pr.
same,Km,[1]; [8],3.79 ± 2.34 µM
same,Vmax for benzyloxyresorufin by CYP3A4,[2],0.31 min⁻¹
Cc1nc2c([nH]1)c(=O)n(C)c(=O)n2Cc1ccco1 [furafylline],DCF formation,[3]; 1 μM,83.9 ±10.2 % of the control
same,DCF formation,[3]; 10 μM,73.9±7.0 % of the control
C[C@]12CC[C@H]3[C@@H](CCC4=CC(=O)CC[C@@]43C)[C@@H]1CC[C@@H]2O [Testosterone],Km,"[1]; human, pH 7.4, Apparent Km by measurement of DCF formation, CYP3A4OR, DCFH-DA 2.5 μM, NADPH 1 mM, Michaelis-Menten fit",11.9 µM
same,Km by DCF measurement lower than Km by 6β-OH testosterone measurement,[1]; ratio of the two Km values,approximately 3.5 fold
same,Km,[1]; [8],12 ± 3.58 µM
same,Km,[4],43.4 µM
"CCOc1ccc(NC(C)=O)cc1 [Phenacetin, N-[4-ethoxyphenyl] acetamide]",DCF formation from potential metabolism by CYP3A4 (in words),"[1]; human, 48 μM, pH 7.4","^aPhenacetin was not significantly metabolized by CYP3A4, and DCF formation was not sufficiently high to allow measurement."
same,metabolites found by prior art HPLC methods,[5],no detectable metabolites
B1,Km,[6],3.46 ± 1.07 µM
same,Km,[7],4.89 ± 1.71 µM

# Reference: patent publication US20020058295A1, “Method of screening candidate compounds for susceptibility to oxidative metabolism” (priority 1998, published 2002)
